Key:
HDAC = HDAC activity in a cell-free system with MCF7 cell lysate; assay type: biochemical, human
Experimental: Measurement of HDAC activity in a cell-free system: This was done using a commercially available assay kit (BioVision). MCF7 cell lysate was used as a source of HDAC activity. 50 μg of lysate protein was incubated with various monocarboxylates (1 mM), or trichostatin A (20 μM), and the reaction was initiated by the addition of HDAC substrate. The reaction was then terminated and the deacetylated product was measured according to the manufacturer's instructions. The activity is expressed in nmoles of deacetylated product formed per μg of MCF7 cell lysate protein per 30 min.

[1] = system: MCF7 cells transfected with SMCT1 cDNA; assay: Colony formation assay in MCF7 cells transfected with SMCT1 cDNA; assay type: cell-based, human; conditions: SMCT1-expressing MCF7 cells
rat ATB^0,+ = target: T1, rat ATB^0,+ (Rattus norvegicus, UniProt Q334I2); assay: Substrate-induced inward currents in Xenopus oocytes expressing rat ATB0,+ (voltage clamp); assay type: cell-based; conditions: 5 mM; voltage clamp
T1 sequence (Q334I2 1-640): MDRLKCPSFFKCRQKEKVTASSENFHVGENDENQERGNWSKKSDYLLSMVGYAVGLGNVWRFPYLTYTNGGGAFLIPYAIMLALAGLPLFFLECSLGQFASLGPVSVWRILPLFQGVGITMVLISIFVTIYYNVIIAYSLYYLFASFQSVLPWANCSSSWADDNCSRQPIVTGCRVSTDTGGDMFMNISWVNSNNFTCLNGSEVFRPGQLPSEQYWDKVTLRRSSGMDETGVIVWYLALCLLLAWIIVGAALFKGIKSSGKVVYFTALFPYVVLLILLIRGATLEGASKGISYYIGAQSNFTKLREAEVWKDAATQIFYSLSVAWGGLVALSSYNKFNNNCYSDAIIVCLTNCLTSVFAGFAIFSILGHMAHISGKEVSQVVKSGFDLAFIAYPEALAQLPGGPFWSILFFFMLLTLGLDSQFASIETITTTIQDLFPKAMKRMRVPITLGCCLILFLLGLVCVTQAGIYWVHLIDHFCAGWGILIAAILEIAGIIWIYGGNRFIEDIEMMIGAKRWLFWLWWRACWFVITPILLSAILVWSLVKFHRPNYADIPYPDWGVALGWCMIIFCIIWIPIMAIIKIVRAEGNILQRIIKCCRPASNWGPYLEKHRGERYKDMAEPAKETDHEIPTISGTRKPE
Experimental: Experiments with HRPE cells were repeated at least three times with three independent transfections and transport measurements made in duplicate in each experiment. Electrophysiological measurements of substrate-induced currents were repeated at least three times with separate oocytes. The data are presented as means±S.E.M. of these replicates. The kinetic parameters, Michaelis constant (Kt) and maximal velocity (Vmax) were calculated by fitting the ATB^0,+-specific transport data to the Michaelis-Menten equation describing a single saturable transport system. Na^+ and Cl^−-activation kinetics were analyzed by fitting the ATB^0,+-specific transport data to the Hill equation for the determination of K0.5 values for Na^+ and Cl^− (concentration of Na^+ and Cl^− necessary for half-maximal activation) and the Hill coefficient (nH; the number of Na^+ or Cl^− ions involved in the activation process). The kinetics parameters were first determined by non-linear regression methods and subsequently confirmed by linear regression methods using the commercially-available computer program SigmaPlot, version 6.0 (SPSS Inc., Chicago, Ill., US).
Therefore, it was necessary to determine whether or not the α-carboxyl esters of neutral amino acids are transportable substrates for ATB^0,+. For this purpose, we used the X. laevis oocyte expression system. Cloned rat ATB^0,+ was functionally expressed in oocytes by injection of corresponding cRNA, and the transport of substrates via the transporter was monitored by inward currents when the oocytes were exposed to putative substrates under voltage-clamp conditions.

CC(=O)O [acetate]
HDAC inhibition (in words) (HDAC): least potent | Effect on cell growth / apoptosis [1]: no effect on cell growth | Inward currents induced in ATB0,+-expressing oocytes (in words) (rat ATB^0,+): did not induce detectable current

Source: patent US8518989B2, “Prodrugs of short-chain fatty acids and treatment methods” (Georgia Health Sciences University Research Institute, Inc., priority 2005, dated 2013)
